According to US12187723B2 (BRISTOL-MYERS SQUIBB COMPANY, priority 2019, dated 2025):
pIC50: −log10 of the molar value.

Legend:
human TLR8 = target: T1, human TLR8 (Homo sapiens, UniProt Q9NR97); assay: TLR8 inhibition reporter assay (HEK-Blue SEAP); type: cell-based; conditions: HEK-Blue cells overexpressing human TLR8, R848 15.9 μM, 22 hour incubation
T1 construct: host or cells: HEK-Blue cells
T1 sequence (Q9NR97 27-1041): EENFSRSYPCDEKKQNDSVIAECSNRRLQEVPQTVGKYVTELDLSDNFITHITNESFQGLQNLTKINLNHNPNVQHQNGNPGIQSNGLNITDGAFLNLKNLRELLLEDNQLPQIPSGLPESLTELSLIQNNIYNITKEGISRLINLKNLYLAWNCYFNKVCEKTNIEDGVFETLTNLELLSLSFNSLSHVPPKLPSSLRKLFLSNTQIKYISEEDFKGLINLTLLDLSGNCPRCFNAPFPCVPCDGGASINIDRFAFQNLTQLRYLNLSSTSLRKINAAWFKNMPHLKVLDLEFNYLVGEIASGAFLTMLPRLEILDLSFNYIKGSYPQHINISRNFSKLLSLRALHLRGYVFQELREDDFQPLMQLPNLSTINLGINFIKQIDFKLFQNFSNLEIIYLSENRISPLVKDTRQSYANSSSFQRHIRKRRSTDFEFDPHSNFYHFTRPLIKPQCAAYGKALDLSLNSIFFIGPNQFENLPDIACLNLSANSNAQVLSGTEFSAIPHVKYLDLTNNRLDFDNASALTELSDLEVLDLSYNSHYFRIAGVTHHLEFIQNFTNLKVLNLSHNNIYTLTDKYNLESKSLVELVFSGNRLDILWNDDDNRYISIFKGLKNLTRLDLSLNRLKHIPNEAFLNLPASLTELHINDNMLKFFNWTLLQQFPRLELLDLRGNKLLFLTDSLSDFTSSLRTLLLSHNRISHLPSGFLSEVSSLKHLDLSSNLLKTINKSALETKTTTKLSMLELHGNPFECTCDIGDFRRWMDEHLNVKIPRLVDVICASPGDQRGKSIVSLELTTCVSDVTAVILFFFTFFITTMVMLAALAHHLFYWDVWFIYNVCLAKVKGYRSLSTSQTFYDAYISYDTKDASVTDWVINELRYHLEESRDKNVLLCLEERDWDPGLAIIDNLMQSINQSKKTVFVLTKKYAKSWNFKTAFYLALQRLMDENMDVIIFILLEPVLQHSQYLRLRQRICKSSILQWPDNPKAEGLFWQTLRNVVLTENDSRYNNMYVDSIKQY
How it was run: (§1)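 Dose–response from 0.05 nM to 50 μM was run in HEK-Blue human TLR7, TLR8 and TLR9 reporter cells. After 30 min at room temperature with compound, ligand was added (TLR7 gardiquimod 7.5 μM; TLR8 R848 15.9 μM; TLR9 ODN2006 5 nM) and SEAP measured next day, at 22 h.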

human TLR9 = target: T2, human TLR9 (Homo sapiens, UniProt Q9NR96); assay: TLR9 inhibition reporter assay (HEK-Blue SEAP); type: cell-based; conditions: HEK-Blue cells overexpressing human TLR9, ODN2006 5 nM, 22 hour incubation
T2 construct: host or cells: HEK-Blue cells
T2 sequence (Q9NR96 26-1032): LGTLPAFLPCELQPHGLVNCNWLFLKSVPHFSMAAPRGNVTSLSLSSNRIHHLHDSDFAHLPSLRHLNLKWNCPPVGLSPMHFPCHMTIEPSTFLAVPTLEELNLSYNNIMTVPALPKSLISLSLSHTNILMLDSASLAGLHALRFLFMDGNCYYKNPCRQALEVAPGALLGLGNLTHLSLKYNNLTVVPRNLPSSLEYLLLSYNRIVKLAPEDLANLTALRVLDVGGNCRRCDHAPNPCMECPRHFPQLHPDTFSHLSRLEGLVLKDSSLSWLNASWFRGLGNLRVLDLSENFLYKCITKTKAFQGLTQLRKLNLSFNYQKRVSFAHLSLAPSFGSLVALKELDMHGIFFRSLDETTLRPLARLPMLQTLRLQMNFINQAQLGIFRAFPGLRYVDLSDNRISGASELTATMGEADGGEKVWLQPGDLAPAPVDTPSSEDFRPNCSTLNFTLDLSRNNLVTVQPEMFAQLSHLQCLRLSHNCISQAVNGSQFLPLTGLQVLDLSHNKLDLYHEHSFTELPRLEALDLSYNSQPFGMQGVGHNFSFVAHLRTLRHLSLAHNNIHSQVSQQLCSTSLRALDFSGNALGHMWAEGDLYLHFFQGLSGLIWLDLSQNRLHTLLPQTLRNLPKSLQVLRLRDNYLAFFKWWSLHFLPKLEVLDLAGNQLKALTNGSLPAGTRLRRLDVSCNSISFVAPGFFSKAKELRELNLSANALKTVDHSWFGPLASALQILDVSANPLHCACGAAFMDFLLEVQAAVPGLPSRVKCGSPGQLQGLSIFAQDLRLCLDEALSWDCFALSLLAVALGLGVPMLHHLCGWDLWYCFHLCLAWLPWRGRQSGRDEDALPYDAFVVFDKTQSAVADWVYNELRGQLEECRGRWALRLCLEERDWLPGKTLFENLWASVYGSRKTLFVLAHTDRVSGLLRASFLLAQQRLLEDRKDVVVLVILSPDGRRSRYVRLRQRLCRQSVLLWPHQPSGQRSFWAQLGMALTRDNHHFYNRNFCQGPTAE
How it was run: as §1

Compound	pIC50 (human TLR8)	pIC50 (human TLR9)
COc1cc(-c2cc3[nH]c(=O)n([C@@H]4CCCN(CC5CC5)C4)c3cc2C)cn2ncnc12 [Example 55, (R)-1-(1-(cyclopropylmethyl)piperidin-3-yl)-5-(8-methoxy-[1,2,4]triazolo[1,5-a]pyridin-6-yl)-6-methyl-1,3-dihydro-2H-benzo[d]imidazol-2-one]	7.71	5.26
COc1cc(-c2ccc3c(c2)[nH]c(=O)n3C2CCN(C3CCC3)CC2)cn2ncnc12 [Example 83, 1-(1-cyclobutylpiperidin-4-yl)-5-(8-methoxy-[1,2,4]triazolo[1,5-a]pyridin-6-yl)-1,3-dihydro-2H-benzo[d]imidazol-2-one]	5.90	5.27
Cc1cc2c(cc1-c1cc(C)c3ncnn3c1)[nH]c(=O)n2[C@@H]1CCCN(CC2CCCC2)C1 [Example 47, (R)-1-(1-(cyclopentylmethyl)piperidin-3-yl)-6-methyl-5-(8-methyl-[1,2,4]triazolo[1,5-a]pyridin-6-yl)-1,3-dihydro-2H-benzo[d]imidazol-2-one]	7.48	5.44
CCCN1CCC[C@@H](n2c(=O)[nH]c3cc(-c4cc(C)c5ncnn5c4)c(C)cc32)C1 [Example 42, (R)-6-methyl-5-(8-methyl-[1,2,4]triazolo[1,5-a]pyridin-6-yl)-1-(1-propylpiperidin-3-yl)-1,3-dihydro-2H-benzo[d]imidazol-2-one]	7.53	4.98
COc1cc(-c2ccc3c(c2)[nH]c(=O)n3C2CCN(CC3CC3)CC2)cn2ncnc12 [Example 79, 1-(1-(cyclopropylmethyl)piperidin-4-yl)-5-(8-methoxy-[1,2,4]triazolo[1,5-a]pyridin-6-yl)-1,3-dihydro-2H-benzo[d]imidazol-2-one]	5.81	5.41
CCC(CC)CN1CCC[C@@H](n2c(=O)[nH]c3cc(-c4cc(C)c5ncnn5c4)c(C)cc32)C1 [Example 45, (R)-1-(1-(2-ethylbutyl)piperidin-3-yl)-6-methyl-5-(8-methyl-[1,2,4]triazolo[1,5-a]pyridin-6-yl)-1,3-dihydro-2H-benzo[d]imidazol-2-one]	7.32	5.52
COc1cc(-c2cc3[nH]c(=O)n([C@@H]4CCCN(C)C4)c3cc2C)cn2ncnc12 [Example 51, (R)-5-(8-methoxy-[1,2,4]triazolo[1,5-a]pyridin-6-yl)-6-methyl-1-(1-methylpiperidin-3-yl)-1,3-dihydro-2H-benzo[d]imidazol-2-one]	7.68	5.08

Now from value to molecule:

pIC50 (human TLR8)	pIC50 (human TLR9)	Compound
6.60	4.34	COc1cc(-c2cc3[nH]c(=O)n([C@@H]4CCCN(C5COC5)C4)c3cc2C)cn2ncnc12 [Example 72, (R)-5-(8-methoxy-[1,2,4]triazolo[1,5-a]pyridin-6-yl)-6-methyl-1-(1-(oxetan-3-yl)piperidin-3-yl)-1,3-dihydro-2H-benzo[d]imidazol-2-one]
6.42	4.65	CNC(=O)CN1CCC(n2c(=O)[nH]c3cc(-c4cc(OC)c5ncnn5c4)c(C)cc32)CC1 [Example 87, 2-(4-(5-(8-methoxy-[1,2,4]triazolo[1,5-a]pyridin-6-yl)-6-methyl-2-oxo-2,3-dihydro-1H-benzo[d]imidazol-1-yl)piperidin-1-yl)-N-methylacetamide]
8.05	5.23	COc1cc(-c2cc3[nH]c(=O)n([C@@H]4CCCN(CC5CCOCC5)C4)c3cc2C)cn2ncnc12 [Example 57, (R)-5-(8-methoxy-[1,2,4]triazolo[1,5-a]pyridin-6-yl)-6-methyl-1-(1-((tetrahydro-2H-pyran-4-yl)methyl)piperidin-3-yl)-1,3-dihydro-2H-benzo[d]imidazol-2-one]
< 5.51	6.44	COc1cc(-c2ccc3c(c2)[nH]c(=O)n3C2CCN(C)CC2)cn2ncnc12 [Example 74, 5-(8-methoxy-[1,2,4]triazolo[1,5-a]pyridin-6-yl)-1-(1-methylpiperidin-4-yl)-1,3-dihydro-2H-benzo[d]imidazol-2-one]
8.15	5.10	COc1cc(-c2cc3[nH]c(=O)n([C@H]4CC[C@@H](N(C)C5CCOCC5)CC4)c3cc2C)cn2ncnc12 [Example 85, 5-(8-methoxy-[1,2,4]triazolo[1,5-a]pyridin-6-yl)-6-methyl-1-((1s,4s)-4-(methyl(tetrahydro-2H-pyran-4-yl)amino)cyclohexyl)-1,3-dihydro-2H-benzo[d]imidazol-2-one]
6.60	5.77	CCCN1CCC(n2c(=O)[nH]c3cc(-c4cc(OC)c5ncnn5c4)ccc32)CC1 [Example 76, 5-(8-methoxy-[1,2,4]triazolo[1,5-a]pyridin-6-yl)-1-(1-propylpiperidin-4-yl)-1,3-dihydro-2H-benzo[d]imidazol-2-one]
7.67	5.00	CCN[C@H]1CC[C@@H](n2c(=O)[nH]c3cc(-c4cc(OC)c5ncnn5c4)c(C)cc32)CC1 [Example 63, 1-((1s,4s)-4-(ethylamino)cyclohexyl)-5-(8-methoxy-[1,2,4]triazolo[1,5-a]pyridin-6-yl)-6-methyl-1,3-dihydro-2H-benzo[d]imidazol-2-one]
7.95	5.32	COc1cc(-c2cc3[nH]c(=O)n([C@@H]4CCCN(CC(C)C)C4)c3cc2C)cn2ncnc12 [Example 56, (R)-1-(1-isobutylpiperidin-3-yl)-5-(8-methoxy-[1,2,4]triazolo[1,5-a]pyridin-6-yl)-6-methyl-1,3-dihydro-2H-benzo[d]imidazol-2-one]
8.75	5.26	CCCN[C@H]1CC[C@@H](n2c(=O)[nH]c3cc(-c4cc(OC)c5ncnn5c4)c(C)cc32)CC1 [Example 64, 5-(8-methoxy-[1,2,4]triazolo[1,5-a]pyridin-6-yl)-6-methyl-1-((1s,4s)-4-(propylamino)cyclohexyl)-1,3-dihydro-2H-benzo[d]imidazol-2-one]
7.73	5.12	COc1cc(-c2cc3[nH]c(=O)n([C@H]4CC[C@@H](NC5COC5)CC4)c3cc2C)cn2ncnc12 [Example 59, 5-(8-methoxy-[1,2,4]triazolo[1,5-a]pyridin-6-yl)-6-methyl-1-((1s,4s)-4-(oxetan-3-ylamino)cyclohexyl)-1,3-dihydro-2H-benzo[d]imidazol-2-one]
5.83	5.56	CCC(CC)CN1CCC(n2c(=O)[nH]c3cc(-c4cc(OC)c5ncnn5c4)ccc32)CC1 [Example 75, 1-(1-(2-ethylbutyl)piperidin-4-yl)-5-(8-methoxy-[1,2,4]triazolo[1,5-a]pyridin-6-yl)-1,3-dihydro-2H-benzo[d]imidazol-2-one]
